Data: article PMC4168258 (Biochemical pharmacology, 2014)

Tests used:
[1] = mouse, in vivo, po, 40 mg/kg
[2] = cited from earlier work
CYP2C9 = CYP2C9 (Homo sapiens, UniProt P11712); assay: Kinetic study of metabolite formation by recombinant CYP2C9; conditions: recombinant CYP2C9 incubations
[3] = cited from earlier work; remark: listed apart in the source

CYP2C9, sequence (P11712 whole entry): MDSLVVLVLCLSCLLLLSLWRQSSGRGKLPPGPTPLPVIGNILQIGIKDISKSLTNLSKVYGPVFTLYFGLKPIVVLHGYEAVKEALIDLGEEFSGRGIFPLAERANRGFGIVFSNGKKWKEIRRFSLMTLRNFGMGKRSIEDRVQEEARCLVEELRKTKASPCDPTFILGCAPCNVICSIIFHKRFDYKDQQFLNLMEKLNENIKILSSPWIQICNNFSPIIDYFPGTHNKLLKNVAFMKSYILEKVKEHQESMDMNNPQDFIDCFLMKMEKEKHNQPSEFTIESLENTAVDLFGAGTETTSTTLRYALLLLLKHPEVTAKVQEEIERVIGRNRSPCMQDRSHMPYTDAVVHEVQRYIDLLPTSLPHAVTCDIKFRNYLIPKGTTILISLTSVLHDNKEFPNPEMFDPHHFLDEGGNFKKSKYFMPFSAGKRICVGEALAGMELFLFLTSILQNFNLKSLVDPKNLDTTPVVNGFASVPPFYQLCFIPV

O=C(C1CCC(O)CC1)N1CC(=O)N2CCc3ccccc3C2C1 (centres unmarked) [III, 4-OH PZQ]
Source (matrix in which detected) [1]: urine, feces

O=C(C1CCCCC1)N1CC(=O)N2CCc3ccccc3[C@@H]2C1 [(R)-PZQ]
side effects compared with racemic PZQ ([2]; single administration of 20 mg/kg vs 40 mg/kg racemic): fewer side effects
activity compared with 40 mg/kg of racemic PZQ ([2]; single administration of 20 mg/kg): same activity
production of metabolite V (CYP2C9): not detected

O=C(C1CCCCC1)N1CC(=O)N2CCc3ccccc3[C@H]2C1 [(S)-PZQ]
systemic levels compared with (R)-PZQ [3]: higher
